Assay results reported in patent publication US11046686B2, “Thiadiazole IRAK4 compounds” (Gilead Sciences, Inc., priority 2018, dated 2021).
Where two headings read alike, the source gives them in different places.

Assays:
TNFα = assay: IRAK4 Monocyte TNFα Cell Based Assay; design: species or system human; details: read-out: EC50 MONO TNF HTRF
How it was run: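 TNFα release quantified by HTRF (cryptate/XL665 antibody pair, overnight at RT) after 1 h compound pre-incubation (0.1% DMSO) and 4 h LPS challenge at 50 pg/ml, 37 °C, 5,000 monocytes per well. Signal ratio normalised between unstimulated (0%) and stimulated (100%) controls.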

IRAK4 enzyme = IRAK4 enzyme (Homo sapiens (Human), UniProt Q9NWZ3); assay: IRAK4 Biochemical Assay (TR-FRET, STK1 KinEASE)
Chain of IRAK4 enzyme (Q9NWZ3 whole entry): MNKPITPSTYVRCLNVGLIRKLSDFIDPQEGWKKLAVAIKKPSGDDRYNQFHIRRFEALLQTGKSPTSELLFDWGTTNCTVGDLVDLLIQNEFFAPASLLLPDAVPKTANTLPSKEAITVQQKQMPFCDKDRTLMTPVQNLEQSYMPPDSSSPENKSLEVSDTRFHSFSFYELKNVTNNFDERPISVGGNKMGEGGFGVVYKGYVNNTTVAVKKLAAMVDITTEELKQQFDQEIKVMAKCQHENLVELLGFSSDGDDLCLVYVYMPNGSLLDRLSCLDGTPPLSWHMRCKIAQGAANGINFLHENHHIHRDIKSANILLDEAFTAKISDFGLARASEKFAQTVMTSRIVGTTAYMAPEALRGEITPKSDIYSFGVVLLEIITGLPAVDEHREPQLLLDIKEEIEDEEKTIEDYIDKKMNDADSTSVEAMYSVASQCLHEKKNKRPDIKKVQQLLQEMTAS
How it was run: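 TR-FRET endpoint (KinEASE STK1): phosphopeptide detected with cryptate antibody and tracer after EDTA quench, ratio 665/615 nm, normalized to no-inhibitor wells as % inhibition. Reaction: 0.75 nM IRAK4, […] peptide, 500 μM ATP, pH 7.0 HEPES, 120 min room temperature, after 15 min compound preincubation with enzyme.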

[1] = Homo sapiens, Monocyte, human monocytes, second part of Table 2, compounds 33-343, unit inferred
[2] = human monocytes, second part of Table 2, compounds 33-343, unit inferred
[3] = second part of Table 2, compounds 33-343, unit inferred, read-out: IC50 IRAK4-HTBS

| SMILES | EC50 (TNFα; [1]) | IC50 (IRAK4 enzyme) | EC50 (TNFα; [2]) | IC50 (IRAK4 enzyme; [3]) | EC50 (TNFα; Homo sapiens, Monocyte) |
| --- | --- | --- | --- | --- | --- |
| CC(=O)N[C@@H]1[C@@H]2CC[C@H]1CN(c1nnc(-c3cnc(-c4ccc5cnc(N[C@@H]6CCCC[C@@H]6N)nn45)cc3N[C@H](C)C#N)s1)C2 [Example 61, N-((1R,5S,8S)-3-(5-(6-(2-(((1R,2S)-2-aminocyclohexyl)amino)pyrrolo[2,1-f][1,2,4]triazin-7-yl)-4-(((R)-1-cyanoethyl)amino)pyridin-3-yl)-1,3,4-thiadiazol-2-yl)-3-azabicyclo[3.2.1]octan-8-yl)acetamide] | 5.3 nM | 1.01 nM | – | – | – |
| CC(=O)N[C@H]1CCN(c2nnc(-c3cnc(-c4ccc5cc(C#N)cnn45)cc3NC(C)C)s2)C[C@H]1O [Example 62, N-((3R,4S)-1-(5-(6-(3-cyanopyrrolo[1,2-b]pyridazin-7-yl)-4-(isopropylamino)pyridin-3-yl)-1,3,4-thiadiazol-2-yl)-3-hydroxypiperidin-4-yl)acetamide] | 12.5 nM | 0.38 nM | – | – | – |
| CC(=O)N[C@@H]1CCN(c2nnc(-c3cnc(-c4ccc5cc(C#N)cnn45)cc3NC(C)C)s2)C[C@H]1O [Example 65, N-((3R,4R)-1-(5-(6-(3-cyanopyrrolo[1,2-b]pyridazin-7-yl)-4-(isopropylamino)pyridin-3-yl)-1,3,4-thiadiazol-2-yl)-3-hydroxypiperidin-4-yl)acetamide] | 10.6 nM | 0.3 nM | – | – | – |
| CC(=O)NC12CCC(CC1)N(c1nnc(-c3cnc(-c4ccc5cc(C#N)cnn45)cc3NC(C)C)s1)C2 [Example 66, N-(2-(5-(6-(3-cyanopyrrolo[1,2-b]pyridazin-7-yl)-4-(isopropylamino)pyridin-3-yl)-1,3,4-thiadiazol-2-yl)-2-azabicyclo[2.2.2]octan-4-yl)acetamide] | 13.6 nM | 0.42 nM | – | – | – |
| CC(=O)N1CC2(C1)CN(c1nnc(-c3cnc(-c4ccc5cc(C#N)cnn45)cc3NC(C)C)s1)C2 [Example 68, 7-(5-(5-(6-acetyl-2,6-diazaspiro[3.3]heptan-2-yl)-1,3,4-thiadiazol-2-yl)-4-(isopropylamino)pyridin-2-yl)pyrrolo[1,2-b]pyridazine-3-carbonitrile] | 37.9 nM | 0.45 nM | – | – | – |
| CC(=O)NC1CCC2(CC1)CN(c1nnc(-c3cnc(-c4ccc5cc(C#N)cnn45)cc3NC(C)C)s1)C2 [Example 69, N-(2-(5-(6-(3-cyanopyrrolo[1,2-b]pyridazin-7-yl)-4-(isopropylamino)pyridin-3-yl)-1,3,4-thiadiazol-2-yl)-2-azaspiro[3.5]nonan-7-yl)acetamide] | 11.8 nM | 1.16 nM | – | – | – |
| CC(=O)NC12CCC(c3nnc(-c4cnc(-c5ccc6cc(C#N)cnn56)cc4NC4COC4)s3)(CC1)CC2 [Example 70, N-(4-(5-(6-(3-cyanopyrrolo[1,2-b]pyridazin-7-yl)-4-(oxetan-3-ylamino)pyridin-3-yl)-1,3,4-thiadiazol-2-yl)bicyclo[2.2.2]octan-1-yl)acetamide] | 8.8 nM | 0.58 nM | – | – | – |
| CC(=O)NC12CCC(c3nnc(-c4cnc(-c5ccc6cc(C#N)cnn56)cc4NC4CCOCC4)s3)(CC1)CC2 [Example 71, N-(4-(5-(6-(3-cyanopyrrolo[1,2-b]pyridazin-7-yl)-4-((tetrahydro-2H-pyran-4-yl)amino)pyridin-3-yl)-1,3,4-thiadiazol-2-yl)bicyclo[2.2.2]octan-1-yl)acetamide] | 3.2 nM | 0.58 nM | – | – | – |
| CC(=O)N[C@H]1C[C@@H]2C[C@H]1CN2c1nnc(-c2cnc(-c3ccc4cc(C#N)cnn34)cc2NC(C)C)s1 [Example 74, N-((1S,4S,5S)-2-(5-(6-(3-cyanopyrrolo[1,2-b]pyridazin-7-yl)-4-(isopropylamino)pyridin-3-yl)-1,3,4-thiadiazol-2-yl)-2-azabicyclo[2.2.1]heptan-5-yl)acetamide] | 11 nM | 0.54 nM | – | – | – |
| CC(=O)NC1CCC2(CC1)CN(c1nnc(-c3cnc(-c4ccc5cc(C#N)cnn45)cc3NC3CCOCC3)s1)C2 [Example 79, N-(2-(5-(6-(3-cyanopyrrolo[1,2-b]pyridazin-7-yl)-4-((tetrahydro-2H-pyran-4-yl)amino)pyridin-3-yl)-1,3,4-thiadiazol-2-yl)-2-azaspiro[3.5]nonan-7-yl)acetamide] | 2.6 nM | 0.48 nM | – | – | – |
| CC(=O)N[C@@H]1CC[C@@H](c2nnc(-c3cnc(-c4ccc5cc(C#N)cnn45)cc3NC(C)C)s2)OC1 [Example 81, N-((3R,6S)-6-(5-(6-(3-cyanopyrrolo[1,2-b]pyridazin-7-yl)-4-(isopropylamino)pyridin-3-yl)-1,3,4-thiadiazol-2-yl)tetrahydro-2H-pyran-3-yl)acetamide] | 21.4 nM | 0.66 nM | – | – | – |
| CC(=O)NC12CCC(c3nnc(-c4cnc(-c5ccc6cc(C#N)cnn56)cc4NC(C)C)s3)(CC1)OC2 [Example 83, N-(1-(5-(6-(3-cyanopyrrolo[1,2-b]pyridazin-7-yl)-4-(isopropylamino)pyridin-3-yl)-1,3,4-thiadiazol-2-yl)-2-oxabicyclo[2.2.2]octan-4-yl)acetamide] | 52.5 nM | 1.37 nM | – | – | – |
| CC(C)Nc1cc(-c2ccc3cc(C#N)cnn23)ncc1-c1nnc(C23CCC(O)(CC2)CC3)s1 [Example 89, 7-(5-(5-(4-hydroxybicyclo[2.2.2]octan-1-yl)-1,3,4-thiadiazol-2-yl)-4-(isopropylamino)pyridin-2-yl)pyrrolo[1,2-b]pyridazine-3-carbonitrile] | 11.3 nM | 1.01 nM | – | – | – |
| CC(C)Nc1cc(-c2ccc3cc(C#N)cnn23)ncc1-c1nnc(N2C[C@H]3CC[C@@H](C2)[C@@H]3NC(=O)[C@H](C)O)s1 [Example 91, (S)-N-((1R,5S,8s)-3-(5-(6-(3-cyanopyrrolo[1,2-b]pyridazin-7-yl)-4-(isopropylamino)pyridin-3-yl)-1,3,4-thiadiazol-2-yl)-3-azabicyclo[3.2.1]octan-8-yl)-2-hydroxypropanamide] | – | – | 3.9 nM | 0.93 nM | – |
| CC(C)Nc1cc(-c2ccc3cc(C#N)cnn23)ncc1-c1nnc(N2C[C@H]3CC[C@@H](C2)[C@@H]3NC(=O)C2CN(C)C2)s1 [Example 102, N-((1R,5S,8s)-3-(5-(6-(3-cyanopyrrolo[1,2-b]pyridazin-7-yl)-4-(isopropylamino)pyridin-3-yl)-1,3,4-thiadiazol-2-yl)-3-azabicyclo[3.2.1]octan-8-yl)-1-methylazetidine-3-carboxamide] | – | – | 31.4 nM | 1.22 nM | – |
| CC(=O)N[C@H]1CC[C@@H](c2nnc(-c3cnc(-c4ccc5cc(C#N)cnn45)cc3NC(C)C)s2)CC1 [Example 127, N-((1s,4s)-4-(5-(6-(3-cyanopyrrolo[1,2-b]pyridazin-7-yl)-4-(isopropylamino)pyridin-3-yl)-1,3,4-thiadiazol-2-yl)cyclohexyl)acetamide] | – | – | 9.9 nM | 0.64 nM | – |
| CC(=O)N1CCC(c2nnc(-c3cnc(-c4ccc5cc(C#N)cnn45)cc3NC(C)C)s2)CC1 [Example 128, 7-(5-(5-(1-acetylpiperidin-4-yl)-1,3,4-thiadiazol-2-yl)-4-(isopropylamino)pyridin-2-yl)pyrrolo[1,2-b]pyridazine-3-carbonitrile] | 18.8 nM | 0.59 nM | – | – | – |
| CC(C)Nc1cc(-c2ccc3cc(C#N)cnn23)ncc1-c1nnc(N2CCNCC2)s1 [Example 130, 7-(4-(isopropylamino)-5-(5-(piperazin-1-yl)-1,3,4-thiadiazol-2-yl)pyridin-2-yl)pyrrolo[1,2-b]pyridazine-3-carbonitrile] | 18.7 nM | 0.64 nM | – | – | – |
| CC(C)Nc1cc(-c2ccc3cc(C#N)cnn23)ncc1-c1nnc(N2CCOCC2)s1 [Example 131, 7-(4-(isopropylamino)-5-(5-morpholino-1,3,4-thiadiazol-2-yl)pyridin-2-yl)pyrrolo[1,2-b]pyridazine-3-carbonitrile] | 14.3 nM | 0.53 nM | – | – | – |
| CC(C)Nc1cc(-c2ccc3cc(C#N)cnn23)ncc1-c1nnc(C2CCN(CC(F)F)CC2)s1 [Example 133, 7-(5-(5-(1-(2,2-difluoroethyl)piperidin-4-yl)-1,3,4-thiadiazol-2-yl)-4-(isopropylamino)pyridin-2-yl)pyrrolo[1,2-b]pyridazine-3-carbonitrile] | 531 nM | 1.47 nM | – | – | – |
| CC(=O)N[C@@H]1[C@@H]2CC[C@H]1N(c1nnc(-c3cnc(-c4ccc5cc(C#N)cnn45)cc3NC(C)C)s1)C2 [Example 137, N-((1R,4R,7R)-2-(5-(6-(3-cyanopyrrolo[1,2-b]pyridazin-7-yl)-4-(isopropylamino)pyridin-3-yl)-1,3,4-thiadiazol-2-yl)-2-azabicyclo[2.2.1]heptan-7-yl)acetamide] | 6.5 nM | 0.85 nM | – | – | – |
| CC(=O)N[C@@H]1C[C@@H]2CC[C@H]1N2c1nnc(-c2cnc(-c3ccc4cc(C#N)cnn34)cc2NC(C)C)s1 [Example 141, N-((1R,2R,4S)-7-(5-(6-(3-cyanopyrrolo[1,2-b]pyridazin-7-yl)-4-(isopropylamino)pyridin-3-yl)-1,3,4-thiadiazol-2-yl)-7-azabicyclo[2.2.1]heptan-2-yl)acetamide] | – | 0.5 nM | – | – | 18.6 nM |
| CC1(Nc2cc(-c3ccc4cc(C#N)cnn34)ncc2-c2nnc(N3C[C@H]4CC[C@@H](C3)O4)s2)COC1 [Example 145, 7-(5-(5-((1R,5S)-8-oxa-3-azabicyclo[3.2.1]octan-3-yl)-1,3,4-thiadiazol-2-yl)-4-((3-methyloxetan-3-yl)amino)pyridin-2-yl)pyrrolo[1,2-b]pyridazine-3-carbonitrile] | 5.6 nM | 0.33 nM | – | – | – |
